Reference: patent US7597904B2, “Metalloproteinase inhibitory agent” (Nestec S.A., priority 2004, dated 2009)
Residues, ends and D or L forms follow the SMILES beside them.

How the values were obtained:
MMP-2 = biological target: T1, MMP-2 (Homo sapiens, UniProt P08253); assay: Matrix metalloproteinase inhibitory test, DQ-gelatin substrate; type: biochemical; conditions: flourescein conjugated gelatin; read-out: IC50 for the inhibition of MMP-2
T1 sequence (P08253 110-660): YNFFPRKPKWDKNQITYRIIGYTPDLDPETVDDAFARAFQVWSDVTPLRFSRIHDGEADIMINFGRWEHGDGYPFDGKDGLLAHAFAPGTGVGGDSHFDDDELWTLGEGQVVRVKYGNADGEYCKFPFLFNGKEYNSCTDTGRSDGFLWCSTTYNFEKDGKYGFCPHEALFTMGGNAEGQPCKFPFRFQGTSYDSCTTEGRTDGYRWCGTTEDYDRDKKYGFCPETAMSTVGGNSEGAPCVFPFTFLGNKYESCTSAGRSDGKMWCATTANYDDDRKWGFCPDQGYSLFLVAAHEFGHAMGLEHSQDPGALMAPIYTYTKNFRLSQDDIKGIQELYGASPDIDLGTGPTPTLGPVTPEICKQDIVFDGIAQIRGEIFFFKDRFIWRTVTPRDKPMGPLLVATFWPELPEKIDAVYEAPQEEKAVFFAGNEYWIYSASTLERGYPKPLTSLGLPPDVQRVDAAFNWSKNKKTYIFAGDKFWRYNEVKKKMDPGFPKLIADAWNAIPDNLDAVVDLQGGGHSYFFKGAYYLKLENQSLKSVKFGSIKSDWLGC
Method: (§1) Matrix Metalloproteinase Inhibitory Test
(§2) The assay was performed in microtiter plates. In each single well 1 μl enzyme, the inhibitor at the desired concentration and finally 5 μl substrate were added to PBS buffer (pH 7.0-7.5), final volume: 200 μl. The reaction mixture was incubated at 37° C. for 2 hours. The increase in fluorescence was continuously recorded, exciting at 485 nm and reading the emission at 530 nm, with a gain of 40.
(§3) Inhibitors:— o-phenantroline: 9.9 mg in 25 μl DMF (dimethylformamide→add 1 μl (final concentration: 10 mM) • synthetic inhibitors at different concentrations
(§4) Substrate: DQ-gelatin: 1 mg/ml in PBS→add 5 μl to the reaction (reaction volume: 200 μl) (final concentration: […])
(§5) Enzymes: • MMP-7: stock solution: 1 U/μl • MMP-2: stock solution: 0.05 μg/μl • MMP-9: stock solution: 0.05 μg/μl Results & Discussion Generation of the Peptide Library with Lb. helveticus CNCM I-2864 . . .

MMP-7 = biological target: T2, MMP-7 (Homo sapiens, UniProt P09237); assay: as above; type: biochemical; conditions: flourescein conjugated gelatin; read-out: IC50 for the inhibition of MMP-7
T2 sequence (P09237 95-267): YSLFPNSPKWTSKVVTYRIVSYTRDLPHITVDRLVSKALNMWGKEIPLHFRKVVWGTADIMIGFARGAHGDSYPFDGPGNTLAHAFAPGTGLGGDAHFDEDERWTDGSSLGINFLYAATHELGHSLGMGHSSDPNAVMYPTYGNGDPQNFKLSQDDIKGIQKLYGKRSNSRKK
Method: as §1, §2, §3, §4, §5

MMP-9 = MMP-9 (Homo sapiens, UniProt P14780); assay: as above; type: biochemical; conditions: flourescein conjugated gelatin; read-out: IC50 for the inhibition of MMP-9
Sequence of MMP-9 (P14780 94-707, species assumed): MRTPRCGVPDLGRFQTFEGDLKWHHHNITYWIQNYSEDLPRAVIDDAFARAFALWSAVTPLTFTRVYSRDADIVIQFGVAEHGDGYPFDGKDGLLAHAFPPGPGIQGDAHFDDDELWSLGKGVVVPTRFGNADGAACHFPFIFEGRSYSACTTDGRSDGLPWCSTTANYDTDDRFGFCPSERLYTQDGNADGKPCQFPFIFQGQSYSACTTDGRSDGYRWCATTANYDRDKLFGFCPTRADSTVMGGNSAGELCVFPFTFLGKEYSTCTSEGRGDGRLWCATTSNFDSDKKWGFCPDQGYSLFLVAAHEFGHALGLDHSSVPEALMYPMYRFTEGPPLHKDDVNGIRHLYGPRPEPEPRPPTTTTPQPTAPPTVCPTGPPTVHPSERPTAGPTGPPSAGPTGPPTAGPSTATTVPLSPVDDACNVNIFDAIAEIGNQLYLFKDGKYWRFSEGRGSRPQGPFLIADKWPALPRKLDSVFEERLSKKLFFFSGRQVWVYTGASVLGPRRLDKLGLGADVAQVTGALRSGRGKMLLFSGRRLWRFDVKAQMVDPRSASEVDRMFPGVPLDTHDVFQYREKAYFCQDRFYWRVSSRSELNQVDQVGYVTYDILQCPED
Method: as §1, §2, §3, §4, §5

ACE = biological target: T3, ACE (Homo sapiens, UniProt P12821); assay: Angiotensin-converting-enzyme inhibitory test, FAPGG substrate; type: biochemical; conditions: substrate N-[3-2(furyl)acryloyl]L-phenylalanylglycylglycine; read-out: IC50 for the inhibition of ACE
T3 construct: purchased
T3 sequence (P12821 30-1306, species assumed): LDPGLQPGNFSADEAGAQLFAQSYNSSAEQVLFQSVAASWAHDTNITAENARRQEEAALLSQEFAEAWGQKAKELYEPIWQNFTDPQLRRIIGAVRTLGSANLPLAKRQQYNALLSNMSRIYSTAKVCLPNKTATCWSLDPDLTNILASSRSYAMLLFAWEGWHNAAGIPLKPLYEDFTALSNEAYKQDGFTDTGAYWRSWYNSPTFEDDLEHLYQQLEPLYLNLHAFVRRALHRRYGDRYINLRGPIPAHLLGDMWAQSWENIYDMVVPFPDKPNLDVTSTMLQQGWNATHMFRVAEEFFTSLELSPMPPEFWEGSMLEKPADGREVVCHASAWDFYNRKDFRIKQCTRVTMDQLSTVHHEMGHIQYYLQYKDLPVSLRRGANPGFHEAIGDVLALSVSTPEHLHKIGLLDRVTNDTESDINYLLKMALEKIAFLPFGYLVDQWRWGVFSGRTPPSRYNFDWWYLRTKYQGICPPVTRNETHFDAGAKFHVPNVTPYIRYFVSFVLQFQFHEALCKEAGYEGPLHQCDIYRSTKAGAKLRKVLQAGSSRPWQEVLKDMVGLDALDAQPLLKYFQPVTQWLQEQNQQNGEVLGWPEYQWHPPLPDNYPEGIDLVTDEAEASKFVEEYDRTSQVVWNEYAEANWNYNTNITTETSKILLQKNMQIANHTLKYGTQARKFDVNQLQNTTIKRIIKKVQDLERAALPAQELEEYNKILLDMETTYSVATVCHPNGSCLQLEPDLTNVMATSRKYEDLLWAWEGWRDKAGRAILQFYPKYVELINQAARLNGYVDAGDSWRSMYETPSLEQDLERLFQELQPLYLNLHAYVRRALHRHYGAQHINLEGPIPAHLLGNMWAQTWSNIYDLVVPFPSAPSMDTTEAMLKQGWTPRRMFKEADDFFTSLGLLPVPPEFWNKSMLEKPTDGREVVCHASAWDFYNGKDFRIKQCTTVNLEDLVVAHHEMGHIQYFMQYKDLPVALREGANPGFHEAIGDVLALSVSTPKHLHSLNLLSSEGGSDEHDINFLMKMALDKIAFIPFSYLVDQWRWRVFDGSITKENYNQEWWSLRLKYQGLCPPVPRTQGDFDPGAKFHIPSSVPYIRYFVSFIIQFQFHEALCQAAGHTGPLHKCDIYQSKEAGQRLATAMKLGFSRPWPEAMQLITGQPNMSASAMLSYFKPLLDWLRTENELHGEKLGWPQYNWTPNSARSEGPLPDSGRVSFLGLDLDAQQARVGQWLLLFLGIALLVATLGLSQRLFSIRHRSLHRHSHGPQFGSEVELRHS
Method: Angiotensin-Converting-Enzyme Inhibitory Test
This procedure is a rapid spectrophotometric method utilizing the synthetic tripeptide substrate N-[3-(2-furyl)acryloil]-L-phenylalanylglycylglycine (FAPGG). Km-value: 0.3 mM.
FAPGG was hydrolysed to furylacryloylphenylalanine (FAP) and glycylgylcine.
The ACE reagent and the ACE Calibrator were reconstituted according to the manufacturer's recommendations.
The assay was performed in quartz cuvets. 0.05 ml ACE Reagent Solution, 0.05 ml casein hydrolysate and 0.05 ml ACE calibrator were mixed and incubated at 37° C. for 10 minutes.
The absorbance at 340 nm was measured as a function of time.
The ACE activity in the sample was determined by comparing the sample reaction rate to that obtained with the ACE calibrator. The results are expressed as percentage with respect to the control.

HT-29 cells = assay: Proliferation of HT-29 cells with synthetic peptides (percentage of counts); type: cell-based, human; conditions: HT-29 cells
Method: Undifferentiated cells (passages 45-78) were maintained in glucose-containing DMEM supplemented with 10% FCS at 37° C. in a 5% CO2/air incubator. Culture medium was changed every two days until the cell monolayers reached 50% confluence. For stimulation assays, HT-29 cells were plated at 1.2*10^4 cells/well in 96-well flat-bottom plates. After incubation for 4 days, the amount of cells present in the wells before incubation with the samples was assessed adding neutral red solution in 4 wells and incubating the plate for 45 min. The HT-29 cells were then washed twice with serum-free media (inclusive the wells with neutral red solution). The wells colored with neutral red remained from now on free of any media.
Synthetic peptides that were tested on HT-29 cell line confirmed their antiproliferative potential.
The same experiment was performed with a shorter version of the former mentioned peptide: ENLLRFFVAPFPEVFG (SEQ ID NO:22) (αS1 33-48).

Structure (SMILES) | IC50 (MMP-2) | IC50 (MMP-7) | IC50 (MMP-9) | IC50 (ACE) | antiproliferative activity of synthetic peptides (in words) (HT-29 cells)
CC(C)C[C@H](NC(=O)[C@H](CC(C)C)NC(=O)[C@@H]1CCCN1C(=O)[C@H](CC(C)C)NC(=O)[C@@H]1CCCN1C(=O)[C@H](CC(C)C)NC(=O)[C@H](Cc1c[nH]cn1)NC(=O)[C@H](CC(C)C)NC(=O)[C@H](CC(N)=O)NC(=O)[C@@H](N)CCC(=O)O)C(=O)O [ENLHLPLPLL] (H-ENLHLPLPLL-OH; N-terminus and C-terminus assumed) | 200 µM | 275 µM | 300 µM | 250 µM | 
CC(C)C[C@H](NC(=O)[C@H](CC(C)C)NC(=O)[C@H](CC(N)=O)NC(=O)[C@H](CCC(=O)O)NC(=O)[C@@H](N)CC(N)=O)C(=O)N[C@@H](CCCNC(=N)N)C(=O)N[C@@H](Cc1ccccc1)C(=O)N[C@@H](Cc1ccccc1)C(=O)N[C@H](C(=O)N[C@@H](C)C(=O)N1CCC[C@H]1C(=O)N[C@@H](Cc1ccccc1)C(=O)N1CCC[C@H]1C(=O)N[C@@H](CCC(=O)O)C(=O)N[C@H](C(=O)N[C@@H](Cc1ccccc1)C(=O)NCC(=O)O)C(C)C)C(C)C [NENLLRFFVAPFPEVFG] (H-NENLLRFFVAPFPEVFG-OH; N-terminus and C-terminus assumed) | 275 µM | 850 µM | 50 µM | 55 µM | 
CC(C)C[C@H](NC(=O)[C@H](CC(C)C)NC(=O)[C@@H]1CCCN1C(=O)[C@H](CC(C)C)NC(=O)[C@@H]1CCCN1C(=O)[C@H](CC(C)C)NC(=O)[C@H](Cc1c[nH]cn1)NC(=O)[C@H](CC(C)C)NC(=O)[C@@H](N)CC(N)=O)C(=O)O [NLHLPLPLL] (H-NLHLPLPLL-OH; N-terminus and C-terminus assumed) | 450 µM | 1200 µM | 600 µM | 15 µM | 
CC(C)C[C@H](NC(=O)[C@H](CC(C)C)NC(=O)[C@@H]1CCCN1C(=O)[C@H](CC(C)C)NC(=O)[C@@H]1CCCN1C(=O)[C@H](CC(C)C)NC(=O)[C@H](Cc1c[nH]cn1)NC(=O)[C@H](CC(C)C)NC(=O)[C@H](CC(N)=O)NC(=O)[C@H](CCC(=O)O)NC(=O)[C@@H](N)C(C)C)C(=O)O [VENLHLPLPLL] (H-VENLHLPLPLL-OH; N-terminus and C-terminus assumed) | 150 µM | 250 µM | 300 µM | 175 µM | 

Second part, led by results:

IC50 (MMP-2) | IC50 (MMP-7) | IC50 (MMP-9) | IC50 (ACE) | Structure (SMILES) | antiproliferative activity of synthetic peptides (in words) (HT-29 cells)
425 µM | 1000 µM | 150 µM | 250 µM | CC(C)C[C@H](NC(=O)[C@H](CC(C)C)NC(=O)[C@H](CC(N)=O)NC(=O)[C@@H](N)CCC(=O)O)C(=O)N[C@@H](CCCNC(=N)N)C(=O)N[C@@H](Cc1ccccc1)C(=O)N[C@@H](Cc1ccccc1)C(=O)N[C@H](C(=O)N[C@@H](C)C(=O)N1CCC[C@H]1C(=O)N[C@@H](Cc1ccccc1)C(=O)N1CCC[C@H]1C(=O)N[C@@H](CCC(=O)O)C(=O)N[C@H](C(=O)N[C@@H](Cc1ccccc1)C(=O)NCC(=O)O)C(C)C)C(C)C [ENLLRFFVAPFPEVFG] (H-ENLLRFFVAPFPEVFG-OH; N-terminus and C-terminus assumed) | antiproliferative pattern similar to the one observed for LNENLLRFFVAPFPEVFG
500 µM | 300 µM | 400 µM | 650 µM | CC(C)[C@H](NC(=O)[C@H](CCC(=O)O)NC(=O)[C@@H]1CCCN1C(=O)[C@H](Cc1ccccc1)NC(=O)[C@@H]1CCCN1C(=O)[C@H](C)NC(=O)[C@@H](NC(=O)[C@@H](N)Cc1ccccc1)C(C)C)C(=O)N[C@@H](Cc1ccccc1)C(=O)NCC(=O)O [FVAPFPEVFG] (H-FVAPFPEVFG-OH; N-terminus and C-terminus assumed) | 
